Values quoted from earlier work in patent US12582591B2, “Increased solubilization of ethylhexyl triazone” (DSM IP Assets B.V., priority 2020, dated 2026).
Like-named read-outs stand apart in the source and are kept apart here.

Conditions: for Solubility in esters and alcohols: particularly ethyl acetate, ethanol / alcohols
[1] = listed as UV-filter of the formula (I)

Solubility in esters and alcohols: moderate solubility | Solubility in esters and alcohols [1]: very soluble | Solubility in water and alkanes: very low | Solubility in water and alkanes [1]: insoluble
Compound: CCCCC(CC)COC(=O)c1ccc(Nc2nc(Nc3ccc(C(=O)OCC(CC)CCCC)cc3)nc(Nc3ccc(C(=O)OCC(CC)CCCC)cc3)n2)cc1 (stereo not shown) [Ethylhexyl triazone, ethylhexyl triazone]
